Data reported in PubChem BioAssay (NCI).
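Method: 48-hour compound exposure of cells in 96-well plates, five concentrations, linear interpolation of endpoints. TGI marks complete inhibition of growth.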

How the values were obtained:
Test in all cases: growth of human tumour cells (NCI), 48 h
[1] = test system: CCRF-CEM leukemia
[2] = test system: SF-268 CNS
[3] = test system: U251 CNS
[4] = test system: SK-MEL-5 melanoma
[5] = test system: NCI-H460 lung
[6] = test system: ACHN renal
[7] = test system: SK-MEL-2 melanoma
[8] = test system: NCI/ADR-RES ovarian
[9] = test system: M14 melanoma
[10] = test system: RPMI-8226 leukemia

SMILES | TGI [1] | TGI [2] | TGI [3] | TGI [4] | TGI [5] | TGI [6] | TGI [7] | TGI [8] | TGI [9] | TGI [10]
On1c(-c2ccccc2)c(-c2c(-c3ccccc3)n(O)c3ccccc23)c2ccccc21 | > 100 µM | > 100 µM | > 100 µM | 50 µM | 49.4 µM | 87.5 µM | 59.2 µM | – | – | –
COC(=O)OC[C@H]1O[C@@H](n2cc(C)c(=O)[nH]c2=O)CC1OC(=O)OC (stereo not given in full) | > 100 µM | > 100 µM | > 100 µM | > 100 µM | > 100 µM | > 100 µM | > 100 µM | > 100 µM | > 100 µM | > 100 µM
COC(=O)/C(=C/c1ccc(OC)cc1)C(C(=O)O)=C(C)C | > 100 µM | > 100 µM | > 100 µM | > 100 µM | > 100 µM | – | > 100 µM | – | > 100 µM | > 100 µM
COc1ccc2nc3ccc(OC)cc3c(S(=O)Cc3ccc([N+](=O)[O-])cc3)c2c1 (stereo not given) | > 21.9 µM | 47.5 µM | > 55.2 µM | 31.8 µM | 67.4 µM | 11.2 µM | 34.9 µM | 62.3 µM | 30.6 µM | 7.7 µM
CN(C)[C@@H]1C(=O)C(C(N)=O)=C(O)[C@@]2(O)C(=O)C3=C(O)c4c(O)cccc4C[C@H]3C[C@@H]12 | 5.65 µM | 3.23 µM | 4.68 µM | 3.63 µM | 6.48 µM | 14.3 µM | 3.31 µM | – | 3.87 µM | –
c1ccc(COc2ccc(C[P+](c3ccccc3)(c3ccccc3)c3ccccc3)cc2)cc1 | 7.28 µM | 14.2 µM | 11.8 µM | 0.284 µM | 3.81 µM | 6.39 µM | 0.727 µM | 49.1 µM | 4.97 µM | 0.201 µM
O=C(C=P(c1ccccc1)(c1ccccc1)c1ccccc1)C12CC3CC(CC(C3)C1)C2 | 32.7 µM | 41.6 µM | 34 µM | 28.8 µM | 31.3 µM | 29.7 µM | 29.5 µM | 37.6 µM | 32.7 µM | 20.6 µM
CSc1nc2c(c(N(C)C)n1)C=Nn1c(nc3ccccc31)S2 | – | > 100 µM | > 100 µM | > 100 µM | > 100 µM | > 100 µM | > 100 µM | > 100 µM | > 100 µM | > 100 µM
COc1ccc(C[C@@H]2CN(C(=O)c3ccccc3)[C@H](Cc3ccc(O)cc3)CN2C(=O)c2ccccc2)cc1Br | > 100 µM | > 100 µM | – | – | > 100 µM | > 100 µM | > 100 µM | > 100 µM | > 100 µM | > 100 µM
Cc1c(C)c(C)c(-n2c(=O)n(C)c(=O)n2C(C)(C)C)c(C)c1C | > 100 µM | > 100 µM | > 100 µM | > 100 µM | > 100 µM | > 100 µM | > 100 µM | – | > 100 µM | > 100 µM
O=c1[nH]cnc2c1nnn2CCCn1nnc2c(=O)[nH]cnc21 | > 100 µM | > 100 µM | > 100 µM | > 100 µM | > 100 µM | > 100 µM | > 100 µM | – | > 100 µM | > 100 µM
CCOC(=O)NNC(=O)NCCNC(=O)NNC(=O)OCC | > 100 µM | > 100 µM | > 100 µM | > 100 µM | > 100 µM | – | > 100 µM | > 100 µM | > 100 µM | > 100 µM
COc1ccc(-n2sc3ncc(-c4ccccc4)cc3c2=O)cc1 | > 100 µM | – | > 100 µM | > 100 µM | > 100 µM | 48.3 µM | > 100 µM | > 100 µM | > 100 µM | 66.8 µM
COc1c2cc(C(C)(C)C)cc1CSCc1cc(C(C)(C)C)cc(c1OC)CCCCC2 | > 50 µM | > 50 µM | > 50 µM | > 50 µM | > 50 µM | > 50 µM | > 50 µM | > 50 µM | > 50 µM | –
CCOC(=O)C1NCCc2c1[nH]c1ccccc21 (stereo not given) | > 10 µM | > 10 µM | – | > 10 µM | – | – | – | – | > 10 µM | > 10 µM
OCC(O)COc1ccc(Br)cc1 (stereo not given) | > 100 µM | > 100 µM | > 100 µM | > 100 µM | – | > 100 µM | > 100 µM | – | > 100 µM | > 100 µM
Nc1c(Br)cc(-c2cc(Br)c(N)c(Br)c2)cc1Br | > 100 µM | > 100 µM | – | > 100 µM | > 100 µM | > 100 µM | – | > 100 µM | > 100 µM | > 100 µM
COc1ccc(-n2c(CCCC(=O)O)nc3c2C(=O)c2ccccc2C3=O)cc1 | > 100 µM | > 100 µM | > 100 µM | – | > 100 µM | > 100 µM | > 100 µM | > 100 µM | 39 µM | > 100 µM
O=C(NCCNCCO)N/N=C/c1cccc([N+](=O)[O-])c1 | > 100 µM | > 100 µM | > 100 µM | > 100 µM | > 100 µM | > 100 µM | > 100 µM | – | > 100 µM | > 100 µM
COC(=O)Cc1c([C@@H]2Nc3ccccc3[C@H]2CC(=O)OC)[nH]c2ccccc12 | > 100 µM | > 100 µM | > 100 µM | 21 µM | 65.5 µM | > 100 µM | 34.8 µM | > 100 µM | – | 49.4 µM
Cc1cc(Br)c(N2C3=C(CC4=C2CCCC4=O)C(=O)CCC3)c(Br)c1 | > 100 µM | > 100 µM | > 100 µM | > 100 µM | > 100 µM | > 100 µM | – | > 100 µM | > 100 µM | > 100 µM
COC(=O)C(=O)C(C(=O)C(=O)Nc1ccccc1C(=O)OC)c1nc2ccc(C(=O)c3ccccc3)cc2[nH]c1=O (stereo not given) | – | > 100 µM | > 100 µM | > 100 µM | > 100 µM | > 100 µM | > 100 µM | > 100 µM | > 100 µM | > 100 µM
[N-]=N[N+]#I1OC(C(F)(F)F)(C(F)(F)F)c2ccccc21 | 47.2 µM | 27.9 µM | 33.8 µM | 4.36 µM | – | 29.1 µM | 32 µM | 45.4 µM | > 100 µM | 51.8 µM
